Results reported in article PMC11258486, “Phase 1 dose escalation study of the MDM2 inhibitor milademetan as monotherapy and in combination with azacitidine in patients with myeloid malignancies” (Cancer Medicine, 2024).
Where a name gives a salt, the structure may show the parent alone.

Test system: Macrophage inhibitory cytokine‐1 (MIC‐1)
Test: Serum MIC‐1 pharmacodynamics
Assay type: in vivo, human
Details: monotherapy, all cohorts
From the text: Macrophage inhibitory cytokine‐1 (MIC‐1) is a target of p53 transcriptional activation,[25] and, therefore, change in serum MIC‐1 levels was included as a PD endpoint, measured at multiple time points.

## CC1(C)CCC2(CC1)N[C@@H](C(=O)N[C@@H]1CC[C@@H](C(N)=O)OC1)[C@H](c1ccnc(Cl)c1F)[C@]21C(=O)Nc2cc(Cl)ccc21 [Milademetan monotherapy, milademetan tosylate hydrate]
Cycle 1 Day 8 (N = 53)
  serum MIC‐1, mean (SD) fold change from baseline: 6.4 (5.8) fold change
Cycle 1 Day 15 (N = 49)
  serum MIC‐1, mean (SD) fold change from baseline: 5.1 (4.2) fold change
Cycle 1 Days 21 through 22
  serum MIC‐1, mean (SD) fold change from baseline: 4.1 (3.3) fold change
